Literature values in patent US6174886A, “Antipsychotic use of triazolo-pyridazine derivatives” (Merck Sharp & Dohme Ltd., priority 1997, dated 2001).

System: schizophrenic patients with an acute psychotic episode

SMILES: CC(C)(C)OC(=O)c1ncn2c1[C@@H]1CCCN1C(=O)c1c(Br)cccc1-2 [bretazenil]
- antipsychotic efficacy: moderate antipsychotic efficacy
- most frequent adverse reaction reported in the study: sedation
